Results from patent US20180237441A1, “Chemical Compounds” (GlaxoSmithKline Intellectual Property (No.2) Limited, priority 2015, published 2018).

target: T1, PERK (Homo sapiens, UniProt Q9NZJ5); assay: PERK enzyme assay (HTRF); type: biochemical; conditions: 500 μM ATP; at least one experimental run; read-out: PERK Enzyme (500 μM ATP) IC50
T1 sequence (Q9NZJ5 30-1116): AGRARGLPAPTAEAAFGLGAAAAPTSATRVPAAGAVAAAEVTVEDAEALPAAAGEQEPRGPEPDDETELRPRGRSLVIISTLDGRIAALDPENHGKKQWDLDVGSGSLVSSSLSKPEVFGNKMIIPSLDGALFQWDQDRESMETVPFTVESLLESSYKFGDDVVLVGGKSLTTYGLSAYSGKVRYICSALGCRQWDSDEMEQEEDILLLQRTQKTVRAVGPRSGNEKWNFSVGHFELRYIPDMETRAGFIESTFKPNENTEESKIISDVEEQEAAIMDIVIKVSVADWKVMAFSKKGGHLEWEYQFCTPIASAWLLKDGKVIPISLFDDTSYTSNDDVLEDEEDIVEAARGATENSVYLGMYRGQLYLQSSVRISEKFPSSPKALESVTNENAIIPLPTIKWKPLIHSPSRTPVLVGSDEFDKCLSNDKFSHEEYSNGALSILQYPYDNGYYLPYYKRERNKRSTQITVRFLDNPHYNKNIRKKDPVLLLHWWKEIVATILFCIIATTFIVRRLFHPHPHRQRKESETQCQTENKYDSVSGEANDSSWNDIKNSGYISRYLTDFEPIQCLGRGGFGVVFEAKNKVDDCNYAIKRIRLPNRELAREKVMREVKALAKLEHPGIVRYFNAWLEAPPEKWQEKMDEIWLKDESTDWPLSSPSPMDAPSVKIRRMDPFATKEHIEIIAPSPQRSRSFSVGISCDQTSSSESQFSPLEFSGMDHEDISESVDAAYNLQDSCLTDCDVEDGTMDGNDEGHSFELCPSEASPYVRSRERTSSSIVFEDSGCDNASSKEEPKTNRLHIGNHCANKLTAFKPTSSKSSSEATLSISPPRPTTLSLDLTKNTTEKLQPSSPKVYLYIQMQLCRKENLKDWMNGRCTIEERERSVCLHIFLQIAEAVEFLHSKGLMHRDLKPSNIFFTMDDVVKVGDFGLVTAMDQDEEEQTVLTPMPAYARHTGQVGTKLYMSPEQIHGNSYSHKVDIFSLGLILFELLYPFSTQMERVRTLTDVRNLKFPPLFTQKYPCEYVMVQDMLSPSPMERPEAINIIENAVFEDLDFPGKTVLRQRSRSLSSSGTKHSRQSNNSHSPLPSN
In short: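 GST-PERK (0.75 nM final) pre-incubated 30–60 min with compound (≤1% DMSO) in HEPES pH 7.5/CHAPS/MgCl2/DTT, then 500 μM ATP and 40 nM biotin-eIF2α added for 60 min. EDTA quench; HTRF detection of phospho-eIF2α (Eu anti-rabbit/streptavidin-APC) read after 2 h; IC50 from concentration series.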

Compound | IC50
CCN1C(=O)N(c2ccc(-c3cn(C)c4ncnc(N)c34)c(F)c2)CC1c1cccc(C)c1 (centres unmarked) [Example 36, 1-(4-(4-amino-7-methyl-7H-pyrrolo[2,3-d]pyrimidin-5-yl)-3-fluorophenyl)-3-ethyl-4-(m-tolyl)imidazolidin-2-one] | 462 nM
CN1C(=O)N(c2ccc(-c3cn(C)c4ncnc(N)c34)c(F)c2)CC1c1ccncc1 (centres unmarked) [Example 110, 1-(4-(4-amino-7-methyl-7H-pyrrolo[2,3-d]pyrimidin-5-yl)-3-fluorophenyl)-3-methyl-4-(pyridin-4-yl)imidazolidin-2-one] | 1980 nM

Other lines, results leading:

IC50 | Compound
77.4 nM | CCN1C(=O)N(c2ccc(-c3cn(C)c4ncnc(N)c34)c(F)c2)CC1c1cc(F)ccc1F (single isomer, unassigned) [Example 2, 1-(4-(4-amino-7-methyl-7H-pyrrolo[2,3-d]pyrimidin-5-yl)-3-fluorophenyl)-4-(2,5-difluorophenyl)-3-ethylimidazolidin-2-one]
3 nM | CN1C(=O)N(c2ccc(-c3cn(C)c4ncnc(N)c34)c(F)c2)CC1c1cc(F)cc(F)c1 (single isomer, unassigned) [Example 100, 1-(4-(4-amino-7-methyl-7H-pyrrolo[2,3-d]pyrimidin-5-yl)-3-fluorophenyl)-4-(3,5-difluorophenyl)-3-methylimidazolidin-2-one]

same assay, conditions: PERK Enzyme (500 μM ATP) IC50; at least one experimental run; read-out: PERK Activity

Compound | IC50
CN1C(=O)N(c2ccc(-c3cn(C)c4ncnc(N)c34)c(F)c2)CC1c1cc(F)cc(F)c1F (single isomer, unassigned) [Example 141, 1-(4-(4-amino-7-methyl-7H-pyrrolo[2,3-d]pyrimidin-5-yl)-3-fluorophenyl)-3-methyl-4-(2,3,5-trifluorophenyl)imidazolidin-2-one] | 100 to 1000 nM
Cc1c(-c2ccc(N3CC(c4ccc(F)cc4F)N(C)C3=O)cc2F)c2c(N)ncnc2n1C (centres unmarked) [Example 94, 1-(4-(4-amino-6,7-dimethyl-7H-pyrrolo[2,3-d]pyrimidin-5-yl)-3-fluorophenyl)-4-(2,4-difluorophenyl)-3-methylimidazolidin-2-one] | 100 to 1000 nM
CCN1C(=O)N(c2ccc(-c3cn(C)c4ncnc(N)c34)c(F)c2)CC1c1cccc(C)c1 (centres unmarked) [Example 36, 1-(4-(4-amino-7-methyl-7H-pyrrolo[2,3-d]pyrimidin-5-yl)-3-fluorophenyl)-3-ethyl-4-(m-tolyl)imidazolidin-2-one] | 100 to 1000 nM
CC(C)n1cc(-c2ccc(N3CC(c4cc(F)ccc4F)N(C)C3=O)cc2F)c2c(N)ncnc21 (single isomer, unassigned) [Example 87, 1-(4-(4-amino-7-isopropyl-7H-pyrrolo[2,3-d]pyrimidin-5-yl)-3-fluorophenyl)-4-(2,5-difluorophenyl)-3-methylimidazolidin-2-one] | 100 to 1000 nM
CN1C(=O)N(c2ccc(-c3cn(C)c4ncnc(N)c34)c(F)c2)CC1c1cccc(Cl)c1F (centres unmarked) [Example 26, 1-(4-(4-amino-7-methyl-7H-pyrrolo[2,3-d]pyrimidin-5-yl)-3-fluorophenyl)-4-(3-chloro-2-fluorophenyl)-3-methylimidazolidin-2-one] | 100 to 1000 nM
Cn1cc(-c2ccc(N3CC(c4cc(F)cc(F)c4)CC3=O)cc2)c2c(N)ncnc21 (centres unmarked) [Example 29, 1-(4-(4-amino-7-methyl-7H-pyrrolo[2,3-d]pyrimidin-5-yl)phenyl)-4-(3,5-difluorophenyl)pyrrolidin-2-one] | 100 to 1000 nM
1-(4-(4-amino-2,7-dimethyl-7H- pyrrolo[2,3-d]pyrimidin-5-yl)-3- fluorophenyl)-4-(2,4-difluorophenyl)- 3-trifluoroethyl)imidazolidin-2-one [Example 83] | 100 to 1000 nM
CN1C(=O)N(c2ccc(-c3cn(C4CC4)c4ncnc(N)c34)c(F)c2)CC1c1cc(F)c(F)cc1F (single isomer, unassigned) [Example 161, 1-(4-(4-amino-7-cyclopropyl-7H-pyrrolo[2,3-d]pyrimidin-5-yl)-3-fluorophenyl)-3-methyl-4-(2,4,5-trifluorophenyl)imidazolidin-2-one] | < 100 nM
CCN1C(=O)N(c2ccc(-c3cn(C)c4ncnc(N)c34)c(F)c2)CC1c1cc(C2CC2)ccc1F (centres unmarked) [Example 48, 1-(4-(4-amino-7-methyl-7H-pyrrolo[2,3-d]pyrimidin-5-yl)-3-fluorophenyl)-4-(5-cyclopropyl-2-fluorophenyl)-3-ethylimidazolidin-2-one] | 100 to 1000 nM
CN1C(=O)N(c2ccc(-c3cn(C)c4ncnc(N)c34)c(F)c2)CC1c1cc(F)cc(F)c1F (centres unmarked) [Example 56, 1-(4-(4-amino-7-methyl-7H-pyrrolo[2,3-d]pyrimidin-5-yl)-3-fluorophenyl)-3-methyl-4-(2,3,5-trifluorophenyl)imidazolidin-2-one] | 100 to 1000 nM
CCN1C(=O)N(c2ccc(-c3cn(CC(F)F)c4ncnc(N)c34)c(F)c2)CC1c1cc(F)ccc1F (centres unmarked) [Example 17, 1-(4-(4-amino-7-(2,2-difluoroethyl)-7H-pyrrolo[2,3-d]pyrimidin-5-yl)-3-fluorophenyl)-4-(2,5-difluorophenyl)-3-ethylimidazolidin-2-one] | 100 to 1000 nM
CCN1C(=O)N(c2ccc(-c3cn(C)c4nc(C)nc(N)c34)c(F)c2)CC1c1ccc(F)cc1F (single isomer, unassigned) [Example 67, 1-(4-(4-amino-2,7-dimethyl-7H-pyrrolo[2,3-d]pyrimidin-5-yl)-3-fluorophenyl)-4-(2,4-difluorophenyl)-3-ethylimidazolidin-2-one] | 100 to 1000 nM
CN1C(=O)N(c2ccc(-c3cn(C4CC4)c4ncnc(N)c34)c(F)c2)CC1c1cc(F)ccc1F (single isomer, unassigned) [Example 146, 1-(4-(4-amino-7-cyclopropyl-7H-pyrrolo[2,3-d]pyrimidin-5-yl)-3-fluorophenyl)-4-(2,5-difluorophenyl)-3-methylimidazolidin-2-one] | < 100 nM
CC(C)n1cc(-c2ccc(N3CC(c4cc(F)ccc4F)N(C)C3=O)cc2F)c2c(N)ncnc21 (centres unmarked) [Example 43, 1-(4-(4-amino-7-isopropyl-7H-pyrrolo[2,3-d]pyrimidin-5-yl)-3-fluorophenyl)-4-(2,5-difluorophenyl)-3-methylimidazolidin-2-one] | < 100 nM
COc1cccc(C2CN(c3ccc(-c4cn(C)c5ncnc(N)c45)c(F)c3)C(=O)N2C)c1 (centres unmarked) [Example 102, 1-(4-(4-amino-7-methyl-7H-pyrrolo[2,3-d]pyrimidin-5-yl)-3-fluorophenyl)-4-(3-methoxyphenyl)-3-methylimidazolidin-2-one] | 100 to 1000 nM
CN1C(=O)N(c2ccc(-c3cn(C)c4ncnc(N)c34)c(F)c2)CC1c1cc(F)c(F)cc1F (single isomer, unassigned) [Example 158, 1-(4-(4-amino-7-methyl-7H-pyrrolo[2,3-d]pyrimidin-5-yl)-3-fluorophenyl)-3-methyl-4-(2,4,5-trifluorophenyl)imidazolidin-2-one] | < 100 nM
CN1C(=O)N(c2ccc(-c3cn(C)c4ncnc(N)c34)c(F)c2)CC1c1ccncc1 (centres unmarked) [Example 110, 1-(4-(4-amino-7-methyl-7H-pyrrolo[2,3-d]pyrimidin-5-yl)-3-fluorophenyl)-3-methyl-4-(pyridin-4-yl)imidazolidin-2-one] | > 1000 nM

More lines, now with the values ahead:

IC50 | Compound
< 100 nM | CN1C(=O)N(c2ccc(-c3cn(C4CC4)c4ncnc(N)c34)c(F)c2)CC1c1cc(F)c(F)cc1F (centres unmarked) [Example 157, 1-(4-(4-amino-7-cyclopropyl-7H-pyrrolo[2,3-d]pyrimidin-5-yl)-3-fluorophenyl)-3-methyl-4-(2,4,5-trifluorophenyl)imidazolidin-2-one]
< 100 nM | CCN1C(=O)N(c2ccc(-c3cn(C)c4ncnc(N)c34)c(F)c2)CC1c1cc(F)ccc1F (single isomer, unassigned) [Example 2, 1-(4-(4-amino-7-methyl-7H-pyrrolo[2,3-d]pyrimidin-5-yl)-3-fluorophenyl)-4-(2,5-difluorophenyl)-3-ethylimidazolidin-2-one]
< 100 nM | Cc1nc(N)c2c(-c3ccc(N4CC(c5ccc(F)cc5)N(C)C4=O)cc3F)cn(C)c2n1 (centres unmarked) [Example 69, 1-(4-(4-amino-2,7-dimethyl-7H-pyrrolo[2,3-d]pynmidin-5-yl)-3-fluorophenyl)-4-(4-fluorophenyl)-3-methylimidazolidin-2-one]
< 100 nM | CN1C(=O)N(c2ccc(-c3nn(C)c4ncnc(N)c34)c(F)c2)CC1c1ccc(F)cc1F (centres unmarked) [Example 99, 1-(4-(4-amino-1-methyl-1H-pyrazolo[3,4-d]pyrimidin-3-yl)-3-fluorophenyl)-4-(2,4-difluorophenyl)-3-methylimidazolidin-2-one]
< 100 nM | CCN1C(=O)N(c2ccc(-c3cn(C)c4ncnc(N)c34)c(F)c2)CC1c1ccc(F)cc1 (centres unmarked) [Example 57]
< 100 nM | CN1C(=O)N(c2ccc(-c3cn(C)c4ncnc(N)c34)c(F)c2)CC1c1c(F)cccc1F (centres unmarked) [Example 81, 1-(4-(4-amino-7-methyl-7H-pyrrolo[2,3-d]pyrimidin-5-yl)-3-fluorophenyl)-4-(2,6-difluorophenyl)-3-methylimidazolidin-2-one]
< 100 nM | CN1C(=O)N(c2ccc(-c3cn(C)c4ncnc(N)c34)c(F)c2)CC1c1ccc(F)c(Cl)c1 (centres unmarked) [Example 131, 1-(4-(4-amino-7-methyl-7H-pyrrolo[2,3-d]pyrimidin-5-yl)-3-fluorophenyl)-4-(3-chloro-4-fluorophenyl)-3-methylimidazolidin-2-one]
< 100 nM | CN1C(=O)N(c2ccc(-c3cn(C)c4ncnc(N)c34)c(F)c2)CC1c1cc(F)cc(F)c1 (single isomer, unassigned) [Example 100, 1-(4-(4-amino-7-methyl-7H-pyrrolo[2,3-d]pyrimidin-5-yl)-3-fluorophenyl)-4-(3,5-difluorophenyl)-3-methylimidazolidin-2-one]
